This note sets out measurements from ChEMBL document CHEMBL1201862, “PubChem BioAssay data set” (2004).

Experiment [1] can be described thus: NIH-3T3 fibroblast cytotoxicity, dose response, cytotoxicity control, cell-based, fluorescence, Alamar Blue, secondary assay (AID 2327).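 Also: NIH-3T3 mouse fibroblasts cultured with fluconazole at 8 µg/mL.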 Type of experiment: functional. In general terms: The colour change of resazurin is a common sign of viable cells or microbes.
The nature of experiment [2]: C. albicans growth with fluconazole, confirmation, fluorescence, retest (AID 2467). The class given is functional, cell-based.
Experiment [3] is described as follows: Luminescence Cell-Based Dose Retest to Confirm Inhibitors of Cancer Stem Cells. [Related pubchem assays (depositor defined):AID2717, AID2721]. Type of experiment: functional. The settings on record: Homo sapiens.
Another experiment deals with T1, Protein RecA (Mycobacterium tuberculosis, UniProt P9WHJ3).
T1 sequence (P9WHJ3 whole entry): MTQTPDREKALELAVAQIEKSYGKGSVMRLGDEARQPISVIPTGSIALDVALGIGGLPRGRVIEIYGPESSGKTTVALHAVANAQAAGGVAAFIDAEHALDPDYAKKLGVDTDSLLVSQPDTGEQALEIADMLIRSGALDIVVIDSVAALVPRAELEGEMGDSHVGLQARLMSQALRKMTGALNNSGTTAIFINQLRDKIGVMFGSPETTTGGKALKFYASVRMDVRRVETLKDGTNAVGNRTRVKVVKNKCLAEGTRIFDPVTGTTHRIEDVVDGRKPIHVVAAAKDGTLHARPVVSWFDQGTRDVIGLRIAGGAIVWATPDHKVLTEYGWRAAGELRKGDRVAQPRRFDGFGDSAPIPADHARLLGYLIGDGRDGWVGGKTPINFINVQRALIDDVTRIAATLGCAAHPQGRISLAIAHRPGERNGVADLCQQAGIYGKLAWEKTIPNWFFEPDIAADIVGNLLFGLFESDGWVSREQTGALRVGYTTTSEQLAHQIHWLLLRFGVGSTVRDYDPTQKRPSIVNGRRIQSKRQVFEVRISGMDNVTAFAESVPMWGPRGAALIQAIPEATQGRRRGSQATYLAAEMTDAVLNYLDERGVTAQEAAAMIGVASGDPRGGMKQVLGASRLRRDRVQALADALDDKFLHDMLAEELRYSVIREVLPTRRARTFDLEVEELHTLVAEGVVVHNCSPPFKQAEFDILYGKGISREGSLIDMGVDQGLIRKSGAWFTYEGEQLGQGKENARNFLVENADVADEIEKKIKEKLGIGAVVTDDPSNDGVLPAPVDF
Put plainly: Fluorescence Cell-Free Homogeneous Dose Retest to Identify Inhibitors of RecA-Intein Splicing Activity. [Related pubchem assays (depositor defined):AID2097, AID2223, AID489010, AID492950]. Type of experiment: functional.

For experiment [4], the target named is T2, Replicative DNA helicase DnaB (Mycobacterium tuberculosis, UniProt P9WMR3).
T2 sequence (P9WMR3 whole entry): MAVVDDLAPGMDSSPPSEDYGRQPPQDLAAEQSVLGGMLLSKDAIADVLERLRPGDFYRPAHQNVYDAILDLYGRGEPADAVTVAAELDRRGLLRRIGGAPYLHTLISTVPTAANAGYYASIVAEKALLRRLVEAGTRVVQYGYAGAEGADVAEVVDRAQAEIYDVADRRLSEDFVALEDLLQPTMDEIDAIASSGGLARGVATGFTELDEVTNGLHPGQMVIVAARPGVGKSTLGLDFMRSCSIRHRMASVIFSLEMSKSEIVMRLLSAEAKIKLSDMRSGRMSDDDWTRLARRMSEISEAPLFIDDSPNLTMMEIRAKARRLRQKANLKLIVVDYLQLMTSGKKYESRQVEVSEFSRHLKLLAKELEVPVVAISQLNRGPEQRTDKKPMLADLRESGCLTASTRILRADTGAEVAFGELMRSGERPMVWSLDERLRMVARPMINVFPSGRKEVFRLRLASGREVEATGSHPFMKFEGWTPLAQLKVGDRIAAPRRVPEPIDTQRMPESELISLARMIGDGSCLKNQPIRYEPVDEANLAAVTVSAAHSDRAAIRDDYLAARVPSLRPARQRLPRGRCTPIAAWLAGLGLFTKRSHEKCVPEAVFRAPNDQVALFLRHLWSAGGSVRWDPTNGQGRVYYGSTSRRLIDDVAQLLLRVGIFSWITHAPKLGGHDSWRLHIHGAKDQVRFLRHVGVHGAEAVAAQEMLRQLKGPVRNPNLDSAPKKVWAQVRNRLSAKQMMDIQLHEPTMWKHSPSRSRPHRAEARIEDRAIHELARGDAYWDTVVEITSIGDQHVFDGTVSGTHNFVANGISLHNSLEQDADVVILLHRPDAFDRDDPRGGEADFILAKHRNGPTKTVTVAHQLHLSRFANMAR
Nature of the experiment: DnaB intein splicing inhibitors, dose response, biochemical, cell-free fluorescence (AID 449749). Type of experiment: functional.

The target of another experiment is T3, Protein skinhead-1 (Caenorhabditis elegans, UniProt P34707).
T3 sequence (P34707 whole entry): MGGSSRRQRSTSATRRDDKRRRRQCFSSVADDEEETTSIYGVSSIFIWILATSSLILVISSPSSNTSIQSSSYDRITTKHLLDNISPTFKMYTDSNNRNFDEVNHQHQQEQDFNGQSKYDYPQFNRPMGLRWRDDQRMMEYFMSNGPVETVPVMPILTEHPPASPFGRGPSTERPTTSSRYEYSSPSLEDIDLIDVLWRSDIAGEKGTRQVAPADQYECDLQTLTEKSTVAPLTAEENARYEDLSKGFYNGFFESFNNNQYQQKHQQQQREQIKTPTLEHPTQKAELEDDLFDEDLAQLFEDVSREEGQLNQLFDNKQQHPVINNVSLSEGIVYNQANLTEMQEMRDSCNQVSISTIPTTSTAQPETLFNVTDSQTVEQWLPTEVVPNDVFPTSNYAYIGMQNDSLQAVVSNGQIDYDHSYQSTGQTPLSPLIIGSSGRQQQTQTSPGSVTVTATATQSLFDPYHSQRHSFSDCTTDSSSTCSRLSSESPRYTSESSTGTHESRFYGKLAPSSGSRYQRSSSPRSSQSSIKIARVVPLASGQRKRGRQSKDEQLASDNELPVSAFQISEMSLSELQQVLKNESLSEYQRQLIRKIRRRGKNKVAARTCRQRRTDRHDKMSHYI
The class given is functional.

In the next experiment the target is Cytochrome P450 2C9 (Homo sapiens, UniProt P11712).
Chain of Cytochrome P450 2C9 (P11712 whole entry): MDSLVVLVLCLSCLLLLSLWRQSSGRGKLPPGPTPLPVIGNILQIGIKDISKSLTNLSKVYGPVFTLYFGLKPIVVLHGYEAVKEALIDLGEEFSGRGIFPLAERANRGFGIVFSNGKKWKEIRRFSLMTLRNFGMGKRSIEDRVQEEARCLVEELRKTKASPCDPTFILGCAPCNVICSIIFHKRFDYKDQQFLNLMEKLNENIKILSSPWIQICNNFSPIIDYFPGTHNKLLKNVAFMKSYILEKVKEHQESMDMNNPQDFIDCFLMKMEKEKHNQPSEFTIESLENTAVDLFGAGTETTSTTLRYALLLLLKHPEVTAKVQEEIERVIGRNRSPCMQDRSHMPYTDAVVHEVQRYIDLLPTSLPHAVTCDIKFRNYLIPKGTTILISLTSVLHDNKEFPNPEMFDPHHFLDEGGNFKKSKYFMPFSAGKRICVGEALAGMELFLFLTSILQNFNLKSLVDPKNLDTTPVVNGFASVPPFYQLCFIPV
For the next experiment, the target named is Cytochrome P450 3A4 (Homo sapiens, UniProt P08684).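 Also: CYP3A4 tested as one member of a cytochrome P450 panel screen.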
Chain of Cytochrome P450 3A4 (P08684 whole entry): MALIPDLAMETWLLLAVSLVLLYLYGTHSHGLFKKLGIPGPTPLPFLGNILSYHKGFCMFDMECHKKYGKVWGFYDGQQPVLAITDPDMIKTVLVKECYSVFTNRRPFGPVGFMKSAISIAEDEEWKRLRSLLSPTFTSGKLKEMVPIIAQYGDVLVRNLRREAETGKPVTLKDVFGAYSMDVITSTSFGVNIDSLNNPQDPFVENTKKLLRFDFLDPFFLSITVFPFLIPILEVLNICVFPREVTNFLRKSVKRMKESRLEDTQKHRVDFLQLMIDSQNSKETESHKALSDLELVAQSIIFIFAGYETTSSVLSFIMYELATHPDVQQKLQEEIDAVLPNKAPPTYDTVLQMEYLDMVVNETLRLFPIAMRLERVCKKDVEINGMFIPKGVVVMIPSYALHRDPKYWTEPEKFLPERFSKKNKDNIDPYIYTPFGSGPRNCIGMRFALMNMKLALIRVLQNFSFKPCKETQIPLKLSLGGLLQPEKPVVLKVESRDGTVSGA
Another experiment deals with H4. Put plainly: Luminescence Cell-Based Dose Response HTS to Identify Activators of 5'UTR Stem-Loop Driven Prion Protein mRNA Translation in H4 Neuroglioblastoma Cells. [Related pubchem assays: 1829 (Project Summary), 1814 (Primary HTS)]. Type of experiment: functional. To be noted: Homo sapiens.
Experiment [5] is described as follows: Luminescence Cell-Based Dose Response HTS to Identify Activators of Luciferase Translation or Activity in H4 […] Cells. [Related pubchem assays: 1829 (Project Summary), 1814 (Primary HTS)]. Type of experiment: functional.
In experiment [6] the target is T4, Corticotropin-releasing factor receptor 2/Corticotropin-releasing factor-binding protein (Homo sapiens, UniProt P24387+Q13324).
T4 sequence (Q13324 whole entry): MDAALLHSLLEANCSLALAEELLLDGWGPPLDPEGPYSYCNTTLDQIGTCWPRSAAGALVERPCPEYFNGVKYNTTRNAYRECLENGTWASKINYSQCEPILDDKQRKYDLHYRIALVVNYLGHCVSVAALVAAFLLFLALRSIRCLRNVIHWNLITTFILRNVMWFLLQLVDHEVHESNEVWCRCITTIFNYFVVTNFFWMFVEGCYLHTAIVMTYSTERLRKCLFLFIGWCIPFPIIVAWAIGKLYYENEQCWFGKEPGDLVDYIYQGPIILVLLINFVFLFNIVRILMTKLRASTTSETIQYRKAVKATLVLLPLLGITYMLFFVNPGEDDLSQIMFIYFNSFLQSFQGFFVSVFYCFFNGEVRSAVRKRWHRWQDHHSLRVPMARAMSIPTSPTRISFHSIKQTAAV
T4 sequence (P24387 whole entry): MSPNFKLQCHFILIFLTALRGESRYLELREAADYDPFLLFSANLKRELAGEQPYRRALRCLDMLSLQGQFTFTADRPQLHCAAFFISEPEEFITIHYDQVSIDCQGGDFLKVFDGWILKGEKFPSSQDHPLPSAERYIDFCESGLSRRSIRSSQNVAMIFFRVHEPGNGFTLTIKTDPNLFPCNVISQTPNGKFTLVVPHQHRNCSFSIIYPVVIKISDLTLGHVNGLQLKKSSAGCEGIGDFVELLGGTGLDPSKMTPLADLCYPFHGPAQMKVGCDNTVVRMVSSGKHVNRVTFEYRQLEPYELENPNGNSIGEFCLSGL
Put plainly: Dose Response confirmation of uHTS hits for small molecule antagonists of the CRF-binding protein and CRF-R2 receptor complex. The settings on record: read-out: IC50_Mean. The class given is functional.

Experiment [7] deals with T4, Corticotropin-releasing factor receptor 2/Corticotropin-releasing factor-binding protein. Nature of the experiment: activators of CRF receptor 2 with binding protein – uHTS hits, confirmation (AID 602473). Type of experiment: functional. To be noted: read-out: EC50_Mean.

Activity calls are given as the source filed them.

Broadly, the AC50 is the concentration at which the activity in the assay is half-maximal. Regarding `CCn1c(C)nc2cc(C(=O)N/N=C/c3cccc(OC)c3O)ccc21`, the EC50 in [1] is 16.2 µM (active); in experiment [2], > 38 µM (not active). In addition, the AC50 in experiment [3] was 8.16 µM (active).
Consider `Cc1cc(-c2ccccc2)nc2cc(C(=O)N(Cc3ccccc3)Cc3ccccc3)nn12`, for which the EC50 at Protein RecA is > 380 µM (inactive). Also, the figures for the AC50 in [4] and in experiment [3] were > 120 µM (inactive) and 4.86 µM (active), respectively.
Take `COc1ccc(/C=N/OCC(=O)Nc2nc3ccccc3s2)cc1`: the EC50 in experiment [1] is > 150 µM (inactive); in experiment [2] it was 4.97 µM (active).
Consider `COc1ccc(C(C(=O)NC2CCCC2)N(C(=O)c2snc(-c3ccc(F)cc3)c2N)c2ccc(F)cc2)cc1` (configuration not stated), for which the IC50 on Protein skinhead-1 is > 100 µM (inactive). Moreover, the AC50 on Cytochrome P450 2C9 is 1.78 µM (inconclusive); on Cytochrome P450 3A4, 12.6 µM (inconclusive).
`N#CC1=C(N)N(c2ccccc2)C(c2ccccc2)C1(C#N)C#N` (configuration not stated): the EC50 at Protein RecA is 11.6 µM (active). Besides, the AC50 in experiment [4] is 7.51 µM (active).
As for `Cc1cc2cc(CNC(=O)c3cccc([N+](=O)[O-])c3)ccc2n1C`, the IC50 at Protein skinhead-1 is > 100 µM (inactive).
Take `CCOCCCNC(=O)c1ccc(N(C)S(=O)(=O)c2ccc(OC)cc2)cc1`: the EC50 in experiment [1] is > 160 µM (inactive); in experiment [2] it was > 38 µM (not active).
For the molecule `CCCn1c(C)cc(C(=O)CSc2nc3ccccc3c(=O)n2Cc2ccco2)c1C`, the figures for the EC50 (in the experiment on H4; in [5]) were 5 µM (active) and 0.112 µM (active), respectively.
As for `N#Cc1ccccc1OCC(O)CS(=O)(=O)c1ccccc1` (configuration not stated), the IC50 on Protein skinhead-1 was > 100 µM (inactive).
For the molecule `CCCc1cc2nnc(SCC(=O)N(C)C3CCCCC3)n2c(N)n1`, the IC50 on Protein skinhead-1 is > 100 µM (inactive).
Take `CCCNC(=O)c1ccc2c(O)c(O)c(-c3ccc(OC)cc3)nc2c1`: the values for the EC50 in experiment [1] and in [2] were > 150 µM (inactive) and > 38 µM (not active), respectively.
In the case of `CN(CC(=O)Nc1ccc2c(c1)OCCO2)CC(=O)Nc1ccc(F)c(F)c1F`, in [6], the IC50 was > 47.1 µM (inactive). Moreover, the EC50 in experiment [7] is > 53 µM (inactive).
`O=C(Oc1ccc(N2C(=O)C3C4CCC(C4)C3C2=O)cc1)c1ccco1` (configuration not stated): at Protein RecA, the EC50 is 13 µM (active). In experiment [4], the AC50 was 28.2 µM (active).
In the case of `COC(=O)c1ccc(C(=O)OC)c(-n2c(=O)c3ccccc3c3ccccc3c2=O)c1`, the EC50 at Protein RecA is 18.5 µM (active). For the same molecule, the AC50 in [4] is 8.61 µM (active).
As for `CSc1ccc(CCNC(=O)c2ccc(C[S+]([O-])Cc3ccc(Cl)cc3)o2)cc1` (configuration not stated), the IC50 in experiment [6] was > 47.1 µM (inactive). For the same molecule, the EC50 in experiment [7] is > 53 µM (inactive).
For `CC(C)CSc1nnc2[nH]c(=O)cc(N)n12` the same measures were > 47.1 µM (inactive) and > 53 µM (inactive).
In the case of `CC(=O)Nc1ccc2c(c1)Cc1c-2cc(Br)c(N)c1Br`, at Protein skinhead-1, the IC50 is > 100 µM (inactive).
For `CSc1ccc(/C=C(/NC(=O)c2ccc(C)cc2)C(=O)Nc2cccc(F)c2)cc1`, the IC50 in experiment [6] is > 47.1 µM (inactive). Moreover, the EC50 in [7] was > 53 µM (inactive).
Regarding `Cc1nc(-c2cccc(NC(=O)c3ccco3)c2)cs1`, the IC50 at Protein skinhead-1 was > 100 µM (inactive).
Still for that read-out and setting: the figure for `CC(C)(C)c1ccc(C2=CSC3=NCCN23)cc1` is > 100 µM (inactive).
As for `Clc1ccc(-c2cc(CSc3ccccc3)on2)cc1`, the IC50 at Protein skinhead-1 is 20 µM (active).
On to `CCOC(=O)Cn1c(=O)oc2cc(S(=O)(=O)NC(C)(C)CC)ccc21`, for which the IC50 in experiment [6] was > 47.1 µM (inactive). Moreover, the EC50 in experiment [7] was > 53 µM (inactive).
`CC(=O)N1CCOc2cc(S(=O)(=O)N3CCN(c4ccccc4)CC3)c(Cl)cc21`: in experiment [6], the IC50 is > 47.1 µM (inactive). The EC50 in experiment [7] was > 53 µM (inactive).
For the molecule `CCCOc1ccc(C(=O)C2=C(O)C(=O)N(c3cc(C)on3)C2c2ccc(C(=O)OC)cc2)cc1` (configuration not stated), the IC50 at Protein skinhead-1 is > 100 µM (inactive).
On to `CCC(C)Nc1nc(Cl)nc(N(C#N)CN2C(=O)c3ccccc3S2(=O)=O)n1` (configuration not stated), for which the EC50 at Protein RecA was 18.2 µM (active). The AC50 in experiment [4] is 14 µM (active).
On to `COc1ccc(CC(=O)O/N=C(\N)Cc2cccc3ccccc23)cc1OC`, for which the EC50 on Protein RecA was 18.2 µM (active). Besides, the AC50 in experiment [4] is 73.3 µM (active).
